This note sets out measurements from ChEMBL document CHEMBL3351824, “Synthesis and biological evaluation of novel tacrine derivatives and tacrine-coumarin hybrids as cholinesterase inhibitors” (J Med Chem, 2014).

Test [1] has as its target T1, Acetylcholinesterase (Homo sapiens, UniProt P22303).
Description: Inhibition of human recombinant AChE pre-incubated for 5 mins before acetylthiocholine substrate addition by Ellman's method
Another test concerns the target Cholinesterase (Homo sapiens, UniProt P06276).
Test [2] addresses T1, Acetylcholinesterase. This is another data set of the same source.
Description: Inhibition of human recombinant AChE assessed as dissociation constant for enzyme-inhibitor-substrate complex by Lineweaver-Burk plot
For test [3], the target named is T1, Acetylcholinesterase. The source holds these as a separate data set.
Description: Inhibition of human recombinant AChE assessed as dissociation constant for enzyme-inhibitor complex by Lineweaver-Burk plot

Chain of Cholinesterase (P06276 whole entry): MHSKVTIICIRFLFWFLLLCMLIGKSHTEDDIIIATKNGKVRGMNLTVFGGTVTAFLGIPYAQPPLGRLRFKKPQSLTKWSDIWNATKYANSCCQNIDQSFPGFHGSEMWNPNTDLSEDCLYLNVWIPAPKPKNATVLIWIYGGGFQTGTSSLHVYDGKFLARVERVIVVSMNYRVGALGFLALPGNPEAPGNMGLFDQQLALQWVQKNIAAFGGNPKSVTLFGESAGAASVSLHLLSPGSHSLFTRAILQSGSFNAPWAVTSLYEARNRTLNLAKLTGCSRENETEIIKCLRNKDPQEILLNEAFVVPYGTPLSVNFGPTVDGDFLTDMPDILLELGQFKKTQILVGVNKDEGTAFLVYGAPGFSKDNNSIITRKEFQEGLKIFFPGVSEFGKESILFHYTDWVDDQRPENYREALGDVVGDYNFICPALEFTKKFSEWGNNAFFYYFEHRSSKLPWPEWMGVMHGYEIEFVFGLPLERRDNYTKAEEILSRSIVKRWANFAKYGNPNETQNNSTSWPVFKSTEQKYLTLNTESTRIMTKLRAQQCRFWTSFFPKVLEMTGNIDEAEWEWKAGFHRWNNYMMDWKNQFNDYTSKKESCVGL
T1 sequence (P22303 whole entry): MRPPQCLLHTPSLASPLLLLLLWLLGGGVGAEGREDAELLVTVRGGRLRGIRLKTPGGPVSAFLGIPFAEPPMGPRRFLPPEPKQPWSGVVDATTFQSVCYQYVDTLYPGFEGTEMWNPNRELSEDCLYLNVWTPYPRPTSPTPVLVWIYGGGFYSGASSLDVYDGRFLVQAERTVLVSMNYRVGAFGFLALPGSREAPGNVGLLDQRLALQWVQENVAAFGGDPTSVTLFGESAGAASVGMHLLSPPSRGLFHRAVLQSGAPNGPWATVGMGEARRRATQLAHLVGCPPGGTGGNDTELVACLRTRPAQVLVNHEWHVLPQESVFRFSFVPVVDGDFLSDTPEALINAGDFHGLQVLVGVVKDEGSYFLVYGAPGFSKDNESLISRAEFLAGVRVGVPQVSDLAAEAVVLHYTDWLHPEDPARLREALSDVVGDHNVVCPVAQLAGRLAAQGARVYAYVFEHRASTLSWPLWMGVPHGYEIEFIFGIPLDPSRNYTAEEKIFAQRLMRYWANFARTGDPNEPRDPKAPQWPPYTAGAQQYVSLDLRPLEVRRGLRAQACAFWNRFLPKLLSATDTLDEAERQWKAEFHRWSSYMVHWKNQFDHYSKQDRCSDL

Usually IC50 stands for the point on the concentration scale where inhibition reaches its midpoint. Higher therefore signals lower potency. For `CCN(CCC(=O)NCCNc1c2c(nc3ccccc13)CCCC2)C1CCCCC1`, the IC50 against Acetylcholinesterase [1] turned out to be 0.233 µM; at Cholinesterase, 0.765 µM.
One may read the Ki as a measure of affinity in units of concentration, obtained from inhibition or displacement. For the compound `CCN(CCC(=O)NCCCNc1c2c(nc3ccccc13)CCCC2)C1CCCCC1`, the Ki at Acetylcholinesterase [2] stood at 0.0789 µM; at Acetylcholinesterase [3], 0.0804 µM. The IC50 against Acetylcholinesterase [1] worked out at 0.0263 µM; at Cholinesterase it was 0.267 µM.
For `CCN(CCC(=O)NCCCCNc1c2c(nc3ccccc13)CCCC2)C1CCCCC1`, in that order: 0.328 µM, 0.199 µM, 0.0942 µM and 0.228 µM.
With `CN(CCC(=O)NCCNc1c2c(nc3ccccc13)CCCC2)C1CCCCC1`, the IC50 at Acetylcholinesterase [1] was determined as 0.58 µM; at Cholinesterase, 2.03 µM.
For `CN(CCC(=O)NCCCNc1c2c(nc3ccccc13)CCCC2)C1CCCCC1`, in that order: 0.398 µM and 2.38 µM.
In the case of `CN(CCC(=O)NCCCCNc1c2c(nc3ccccc13)CCCC2)C1CCCCC1`, the IC50 on Acetylcholinesterase [1] is 0.104 µM; at Cholinesterase it was 2.23 µM.
For `O=C(Cc1cc(=O)oc2cc(O)ccc12)NCCNc1c2c(nc3ccccc13)CCCC2`, in that order: 2.91 µM and 12.6 µM.
As for `O=C(Cc1cc(=O)oc2cc(O)ccc12)NCCCNc1c2c(nc3ccccc13)CCCC2`, the IC50 at Acetylcholinesterase [1] was found to be 0.277 µM; against Cholinesterase, 0.827 µM.
As to `O=C(Cc1cc(=O)oc2cc(O)ccc12)NCCCCNc1c2c(nc3ccccc13)CCCC2`, the Ki at Acetylcholinesterase [2] worked out at 0.0234 µM; at Acetylcholinesterase [3], 0.0041 µM. For the same compound, the half-inhibitory concentration (IC50) turned out to be 0.0154 µM on Acetylcholinesterase [1] and 0.328 µM on Cholinesterase.
For `O=C(Cc1cc(=O)oc2cc(O)ccc12)NNC(=S)Nc1c2c(nc3ccccc13)CCCC2`, in that order: 92.8 µM, 1.94 µM, 8.17 µM and 1.42 µM.
With `O=C(Cc1cc(=O)oc2cc(O)ccc12)N/N=C1\SCC(=O)N1c1c2c(nc3ccccc13)CCCC2`, the Ki on Acetylcholinesterase [2] worked out at 65.3 µM; on Acetylcholinesterase [3], 2.36 µM. Further, the IC50 against Acetylcholinesterase [1] is 15.7 µM; against Cholinesterase it was 5.62 µM.
